Experimental data: publication PMC11183114, “Structural basis of S-adenosylmethionine-dependent allosteric transition from active to inactive states in methylenetetrahydrofolate reductase” (Nature Communications, 2024)
Residue numbers refer to the chain shown, from its start. Where two headings read alike, the source gives them in different places. One block for each molecule: values may come before it.

Columns and labels:
[1] = biological target: T1, methylenetetrahydrofolate reductase (cMTHFR) (Thermochaetoides thermophila, UniProt G0S5U9); assay: UV-Vis titration (FAD absorbance quench at […] nm, Hill fit, coefficient […]); […] also inhibits NADPH-menadione oxidoreductase activity by […]; type: binding
T1 construct: gene CTHT_0033700; cMTHFR^wt
T1 sequence (G0S5U9 1-614): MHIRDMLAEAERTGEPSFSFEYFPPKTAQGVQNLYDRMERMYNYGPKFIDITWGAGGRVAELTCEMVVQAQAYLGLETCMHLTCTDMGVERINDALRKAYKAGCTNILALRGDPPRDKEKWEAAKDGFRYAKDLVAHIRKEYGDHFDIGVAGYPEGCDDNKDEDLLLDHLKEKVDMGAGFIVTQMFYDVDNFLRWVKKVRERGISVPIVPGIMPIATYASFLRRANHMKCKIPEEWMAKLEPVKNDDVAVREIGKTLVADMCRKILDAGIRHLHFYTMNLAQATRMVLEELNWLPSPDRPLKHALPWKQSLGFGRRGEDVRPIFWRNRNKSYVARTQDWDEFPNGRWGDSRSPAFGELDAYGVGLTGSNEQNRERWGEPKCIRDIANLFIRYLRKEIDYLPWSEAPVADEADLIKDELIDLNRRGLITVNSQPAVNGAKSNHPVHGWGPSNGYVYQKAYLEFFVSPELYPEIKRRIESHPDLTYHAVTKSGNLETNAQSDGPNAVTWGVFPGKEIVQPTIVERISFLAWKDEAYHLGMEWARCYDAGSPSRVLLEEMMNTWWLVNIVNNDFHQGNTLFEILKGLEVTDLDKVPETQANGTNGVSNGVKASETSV

[2] = biological target: T2, methylenetetrahydrofolate reductase (cMTHFR) (Thermochaetoides thermophila, UniProt G0S5U9, R315A); assay: X-ray crystal structure, […] Å (T-state); type: binding; set-up: gene CTHT_0033700; cMTHFR^R315A, homodimer; two AdoMet per regulatory domain
T2 sequence (G0S5U9 1-614 R315A): T1 sequence (G0S5U9 1-614) with R315A
From the text: Unexpectedly, two molecules of AdoMet were found

[3] = biological target: T2, methylenetetrahydrofolate reductase (cMTHFR); assay: X-ray crystal structure, […] Å (T-state); type: binding; set-up: gene CTHT_0033700; cMTHFR^R315A
[4] = biological target: T3, methylenetetrahydrofolate reductase (cMTHFR) (Thermochaetoides thermophila, UniProt G0S5U9, E21Q/L393M/V516F); assay: X-ray crystal structure, […] Å (R-state); type: binding
T3 construct: gene CTHT_0033700; cMTHFR^E21Q, L393M, V516F, surface lysines reductively methylated
T3 sequence (G0S5U9 1-614 E21Q/L393M/V516F): T1 sequence (G0S5U9 1-614) with E21Q, L393M, V516F

[5] = biological target: T1, methylenetetrahydrofolate reductase (cMTHFR); assay: NADH-menadione oxidoreductase assay, purified enzyme ([…] NADH); type: biochemical
[6] = biological target: T1, methylenetetrahydrofolate reductase (cMTHFR); assay: NADPH-menadione oxidoreductase assay, purified enzyme ([…] NADPH); type: biochemical

SMILES: C[S@@+](CC[C@H](N)C(=O)[O-])C[C@H]1O[C@@H](n2cnc3c(N)ncnc32)[C@H](O)[C@@H]1O [AdoMet]
- Kd [1]: ~18.8 µM
- X-ray crystal structure, 2.8 Å (T-state) [2]: The regulatory domain was found to bind AdoMet, as expected for the T-state. Unexpectedly, two molecules of AdoMet were found

SMILES: Cc1cc2nc3c(=O)[nH]c(=O)nc-3n(C[C@H](O)[C@H](O)[C@H](O)COP(=O)(O)OP(=O)(O)OC[C@H]3O[C@@H](n4cnc5c(N)ncnc54)[C@H](O)[C@@H]3O)c2cc1C [FAD]
- X-ray crystal structure, 2.8 Å (T-state) [3]: the si-face of FAD is occluded by Tyr361 on the C-terminal region of the linker, which forms a π-stacking interaction
- X-ray crystal structure, 3.4 Å (R-state) [4]: Electron density for FAD was observed in every catalytic active site.

- NADH-menadione oxidoreductase assay, purified enzyme (100 μM NADH) [5]: 44 µM/min
SMILES: NC(=O)C1=CN([C@@H]2O[C@H](COP(=O)(O)OP(=O)(O)OC[C@H]3O[C@@H](n4cnc5c(N)ncnc54)[C@H](O)[C@@H]3O)[C@@H](O)[C@H]2O)C=CC1 [NADH]

- NADPH-menadione oxidoreductase assay, purified enzyme (100 μM NADPH) [6]: 120 µM/min
SMILES: NC(=O)C1=CN([C@@H]2O[C@H](COP(=O)(O)OP(=O)(O)OC[C@H]3O[C@@H](n4cnc5c(N)ncnc54)[C@H](OP(=O)(O)O)[C@@H]3O)[C@@H](O)[C@H]2O)C=CC1 [NADPH]
